In article PMC9929129, “Towards Translation of PqsR Inverse Agonists: From In Vitro Efficacy Optimization to In Vivo Proof‐of‐Principle” (Advanced Science, 2023):
≈ marks a conversion by molar mass, not a printed value.

Tested on: not listed separately
Test: Metabolic stability in mouse liver microsomes (MLM)
Settings: not given

Compound	half-life at 1 μM
Fc1ccc(CNc2ccnc(C(F)(F)F)c2)cc1 [Compound 2]	54 min
FC(F)(F)c1cc(NCc2ccc(Cl)cc2)ccn1 [Compound 3]	44 min
FC(F)(F)c1cc(NCc2ccc(Br)cc2)ccn1 [Compound 4]	61 min
FC(F)(F)c1cc(NCc2cccc(Br)c2)ccn1 [Compound 5]	20 min
FC(F)(F)c1cc(NCc2ccccc2Br)ccn1 [Compound 6]	4 min
FC(F)(F)c1cc(NCc2ccc(-c3ccc(Cl)cc3)cc2)ccn1 [Compound 7]	> 40 min
FC(F)(F)c1cc(NCc2ccc(-c3ccc(Cl)cc3)nc2)ccn1 [Compound 8]	50 min
FC(F)(F)c1cc(NCc2ccc(-c3ccc(Cl)cc3)cn2)ccn1 [Compound 9]	57 min
FC(F)(F)c1cc(NCc2ccc(-c3ccc(Cl)cn3)cn2)ccn1 [Compound 10]	75 min
FC(F)(F)c1cc(NCc2ccc(-c3ccc(Cl)nc3)cn2)ccn1 [Compound 11]	> 480 min
FC(F)(F)c1cc(OCc2ccc(-c3ccc(Cl)nc3)cn2)ccn1 [Compound 12]	74 min
FC(F)(F)c1cc(SCc2ccc(-c3ccc(Cl)nc3)cn2)ccn1 [Compound 13]	6 min
COc1ccc(-c2ccc(CNc3ccnc(C(F)(F)F)c3)nc2)cn1 [Compound 14]	77 min
Cc1cc(-c2ccc(CNc3ccnc(C(F)(F)F)c3)nc2)cnc1Cl [Compound 15]	< 5 min
FC(F)(F)c1cc(NCc2ccc(-c3cnc(Cl)c(C(F)(F)F)c3)cn2)ccn1 [Compound 16]	384 min
FC(F)(F)c1cc(NCc2ccc(-c3cnc(Cl)c(Cl)c3)cn2)ccn1 [Compound 17]	45 min
COc1ncc(-c2ccc(CNc3ccnc(C(F)(F)F)c3)nc2)cc1Cl [Compound 18]	2 min
FC(F)(F)c1cc(NCc2ccc(-c3ccc(Oc4ccccc4)nc3)cn2)ccn1 [Compound 19]	35 min
FC(F)(F)c1cc(NCc2cnc(-c3ccc(Cl)c(Cl)c3)nc2)ccn1 [Compound 20]	61 min
FC(F)(F)c1cc(NCc2cnc(-c3ccc(Oc4ccccc4)cc3)nc2)ccn1 [Compound 21]	32 min
CC(C)Oc1ccc(-c2ncc(CNc3ccnc(C(F)(F)F)c3)cn2)cc1 [Compound 22]	> 85 min
FC(F)(F)c1cc(NCc2cnc(-c3ccc(C4CC4)cc3)nc2)ccn1 [Compound 23]	3 min
CC(C)Oc1ncc(-c2ncc(CNc3ccnc(C(F)(F)F)c3)cn2)cc1Cl [Compound 25]	> 480 min

Tested on: Pseudomonas aeruginosa PA14
Test: Pyocyanin assay in Pseudomonas aeruginosa
Type: cell-based
Settings: PA14, 16 h, read-out: IC50 Pyocyanin
Protocol: 1.2.2 Pyocyanin assay in Pseudomonas aeruginosa
Inhibition of pyocyanin biosynthesis of compounds was measured spectrophotometrically as previously described.[2] Pseudomonas aeruginosa PA14 was grown in rich medium for 16 h under agitation with and without compound. Pyocyanin was extracted from cultures with chloroform, then re-extracted with 0.2 M HCl and quantified photometrically (520 nm). IC50 values were determined from dose-response curves of compounds using at least six different concentrations and fitting with non-linear regression analysis (OriginPro 2017–2020, Originlab Corporation). […]

Compound	IC50
Fc1ccc(CNc2ccnc(C(F)(F)F)c2)cc1 [Compound 2]	176000 ± 47400 nM
FC(F)(F)c1cc(NCc2ccc(Cl)cc2)ccn1 [Compound 3]	19000 ± 1200 nM
FC(F)(F)c1cc(NCc2ccc(Br)cc2)ccn1 [Compound 4]	14400 ± 1600 nM
FC(F)(F)c1cc(NCc2cccc(Br)c2)ccn1 [Compound 5]	71400 ± 27200 nM
FC(F)(F)c1cc(NCc2ccccc2Br)ccn1 [Compound 6]	126000 ± 10600 nM
FC(F)(F)c1cc(NCc2ccc(-c3ccc(Cl)cc3)cc2)ccn1 [Compound 7]	449 ± 74 nM
FC(F)(F)c1cc(NCc2ccc(-c3ccc(Cl)cc3)nc2)ccn1 [Compound 8]	3300 ± 1300 nM
FC(F)(F)c1cc(NCc2ccc(-c3ccc(Cl)cc3)cn2)ccn1 [Compound 9]	2900 ± 3900 nM
FC(F)(F)c1cc(NCc2ccc(-c3ccc(Cl)cn3)cn2)ccn1 [Compound 10]	35100 ± 27500 nM
FC(F)(F)c1cc(NCc2ccc(-c3ccc(Cl)nc3)cn2)ccn1 [Compound 11]	7200 ± 4600 nM
FC(F)(F)c1cc(OCc2ccc(-c3ccc(Cl)nc3)cn2)ccn1 [Compound 12]	> 20000 nM
FC(F)(F)c1cc(SCc2ccc(-c3ccc(Cl)nc3)cn2)ccn1 [Compound 13]	3100 ± 900 nM
COc1ccc(-c2ccc(CNc3ccnc(C(F)(F)F)c3)nc2)cn1 [Compound 14]	2900 ± 800 nM
Cc1cc(-c2ccc(CNc3ccnc(C(F)(F)F)c3)nc2)cnc1Cl [Compound 15]	1900 ± 300 nM
FC(F)(F)c1cc(NCc2ccc(-c3cnc(Cl)c(C(F)(F)F)c3)cn2)ccn1 [Compound 16]	2100 ± 400 nM
FC(F)(F)c1cc(NCc2ccc(-c3cnc(Cl)c(Cl)c3)cn2)ccn1 [Compound 17]	802 ± 200 nM
COc1ncc(-c2ccc(CNc3ccnc(C(F)(F)F)c3)nc2)cc1Cl [Compound 18]	1500 ± 200 nM
FC(F)(F)c1cc(NCc2ccc(-c3ccc(Oc4ccccc4)nc3)cn2)ccn1 [Compound 19]	4200 ± 1100 nM
FC(F)(F)c1cc(NCc2cnc(-c3ccc(Cl)c(Cl)c3)nc2)ccn1 [Compound 20]	234 ± 57 nM
FC(F)(F)c1cc(NCc2cnc(-c3ccc(Oc4ccccc4)cc3)nc2)ccn1 [Compound 21]	320 ± 110 nM
CC(C)Oc1ccc(-c2ncc(CNc3ccnc(C(F)(F)F)c3)cn2)cc1 [Compound 22]	521 ± 300 nM
FC(F)(F)c1cc(NCc2cnc(-c3ccc(C4CC4)cc3)nc2)ccn1 [Compound 23]	591 ± 70 nM
CC(C)Oc1ncc(-c2ncc(CNc3ccnc(C(F)(F)F)c3)cn2)cc1Cl [Compound 25]	523 ± 50 nM

Tested on: not listed separately
Test: Kinetic turbidimetric aqueous solubility
Settings: PBS buffer, kinetic from dmso stock

Compound	solubility kinetic at 5 min
Fc1ccc(CNc2ccnc(C(F)(F)F)c2)cc1 [Compound 2]	> 200 µM
FC(F)(F)c1cc(NCc2ccc(Cl)cc2)ccn1 [Compound 3]	> 200 µM
FC(F)(F)c1cc(NCc2ccc(Br)cc2)ccn1 [Compound 4]	> 200 µM
FC(F)(F)c1cc(NCc2cccc(Br)c2)ccn1 [Compound 5]	> 200 µM
FC(F)(F)c1cc(NCc2ccccc2Br)ccn1 [Compound 6]	> 200 µM
FC(F)(F)c1cc(NCc2ccc(-c3ccc(Cl)cc3)cc2)ccn1 [Compound 7]	10 µM (≈ 3.63 µg/mL)
FC(F)(F)c1cc(NCc2ccc(-c3ccc(Cl)cc3)nc2)ccn1 [Compound 8]	38.9 µM (≈ 14.2 µg/mL)
FC(F)(F)c1cc(NCc2ccc(-c3ccc(Cl)cc3)cn2)ccn1 [Compound 9]	26.6 µM (≈ 9.68 µg/mL)
FC(F)(F)c1cc(NCc2ccc(-c3ccc(Cl)cn3)cn2)ccn1 [Compound 10]	> 200 µM
FC(F)(F)c1cc(NCc2ccc(-c3ccc(Cl)nc3)cn2)ccn1 [Compound 11]	161 µM (≈ 58.6 µg/mL)
FC(F)(F)c1cc(OCc2ccc(-c3ccc(Cl)nc3)cn2)ccn1 [Compound 12]	48.1 µM (≈ 17.6 µg/mL)
FC(F)(F)c1cc(SCc2ccc(-c3ccc(Cl)nc3)cn2)ccn1 [Compound 13]	42.3 µM (≈ 16.2 µg/mL)
COc1ccc(-c2ccc(CNc3ccnc(C(F)(F)F)c3)nc2)cn1 [Compound 14]	> 200 µM
Cc1cc(-c2ccc(CNc3ccnc(C(F)(F)F)c3)nc2)cnc1Cl [Compound 15]	112 µM (≈ 42.6 µg/mL)
FC(F)(F)c1cc(NCc2ccc(-c3cnc(Cl)c(C(F)(F)F)c3)cn2)ccn1 [Compound 16]	101 µM (≈ 43.7 µg/mL)
FC(F)(F)c1cc(NCc2ccc(-c3cnc(Cl)c(Cl)c3)cn2)ccn1 [Compound 17]	76.2 µM (≈ 30.4 µg/mL)
COc1ncc(-c2ccc(CNc3ccnc(C(F)(F)F)c3)nc2)cc1Cl [Compound 18]	42.4 µM (≈ 16.7 µg/mL)
FC(F)(F)c1cc(NCc2ccc(-c3ccc(Oc4ccccc4)nc3)cn2)ccn1 [Compound 19]	25.6 µM (≈ 10.8 µg/mL)
FC(F)(F)c1cc(NCc2cnc(-c3ccc(Cl)c(Cl)c3)nc2)ccn1 [Compound 20]	16.6 µM (≈ 6.63 µg/mL)
FC(F)(F)c1cc(NCc2cnc(-c3ccc(Oc4ccccc4)cc3)nc2)ccn1 [Compound 21]	10.9 µM (≈ 4.6 µg/mL)
CC(C)Oc1ccc(-c2ncc(CNc3ccnc(C(F)(F)F)c3)cn2)cc1 [Compound 22]	41.7 µM (≈ 16.2 µg/mL)
FC(F)(F)c1cc(NCc2cnc(-c3ccc(C4CC4)cc3)nc2)ccn1 [Compound 23]	16.5 µM (≈ 6.11 µg/mL)
CC(C)Oc1ncc(-c2ncc(CNc3ccnc(C(F)(F)F)c3)cn2)cc1Cl [Compound 25]	37.9 µM (≈ 16.1 µg/mL)

Tested on: Pseudomonas aeruginosa PA14
Test: not given
Parameters: method as in PMID 31709767
Settings: previously published hit; read-out: IC50 Pyocyanin; cited from earlier work

Compound	IC50
Nc1cc(NCc2ccc(F)cc2)cc(C(F)(F)F)n1 [Compound 1]	107000 nM

Target: T1, PqsR (Pseudomonas aeruginosa, UniProt Q9I4X0)
T1 construct: expressed in transfected cells; host or cells: Escherichia coli DH5α with plasmid pEAL08-2
Test: not given
Settings: read-out: IC50 PqsR; previously published hit; cited from earlier work

T1 sequence (Q9I4X0 whole entry): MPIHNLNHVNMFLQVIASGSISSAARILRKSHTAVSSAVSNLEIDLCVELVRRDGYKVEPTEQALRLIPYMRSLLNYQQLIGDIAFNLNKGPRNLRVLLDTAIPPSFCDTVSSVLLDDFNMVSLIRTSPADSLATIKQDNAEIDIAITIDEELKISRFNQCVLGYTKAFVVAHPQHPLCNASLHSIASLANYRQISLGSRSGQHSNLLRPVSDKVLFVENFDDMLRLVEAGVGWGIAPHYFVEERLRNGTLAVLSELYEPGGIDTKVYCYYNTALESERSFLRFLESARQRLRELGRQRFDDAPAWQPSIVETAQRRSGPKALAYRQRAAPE

Compound	IC50
Nc1cc(NCc2ccc(F)cc2)cc(C(F)(F)F)n1 [Compound 1]	2310 nM

Same assay, conditions: read-out: IC50 toward PqsR in heterologous lacZ reporter gene assay in E. coli; cited from earlier work

Compound	IC50
Nc1cc(NCc2ccc(F)cc2)cc(C(F)(F)F)n1 [Compound 1]	2300 nM

Tested on: Bronchiectasis clinical isolates, PA14 and PAO1
Test: Antimicrobial minimal inhibitory concentrations (MIC), microdilution
Settings: strain column 1 of 16 (strain heads not assignable)

Compound	MIC
CC(C)(O/N=C(\C(=O)N[C@@H]1C(=O)N2C(C(=O)[O-])=C(C[n+]3ccccc3)CS[C@H]12)c1csc(N)n1)C(=O)O [Ceftazidim]	2 µg/mL (≈ 3.66 µM)
Colistin	2 µg/mL

Same assay, conditions: strain column 2 of 16

Compound	MIC
CC(C)(O/N=C(\C(=O)N[C@@H]1C(=O)N2C(C(=O)[O-])=C(C[n+]3ccccc3)CS[C@H]12)c1csc(N)n1)C(=O)O [Ceftazidim]	4 µg/mL (≈ 7.32 µM)
Colistin	2 µg/mL

Same assay, conditions: strain column 3 of 16

Compound	MIC
CC(C)(O/N=C(\C(=O)N[C@@H]1C(=O)N2C(C(=O)[O-])=C(C[n+]3ccccc3)CS[C@H]12)c1csc(N)n1)C(=O)O [Ceftazidim]	2 µg/mL (≈ 3.66 µM)
Colistin	1 µg/mL

Same assay, conditions: strain column 4 of 16

Compound	MIC
CC(C)(O/N=C(\C(=O)N[C@@H]1C(=O)N2C(C(=O)[O-])=C(C[n+]3ccccc3)CS[C@H]12)c1csc(N)n1)C(=O)O [Ceftazidim]	≤ 0.5 µg/mL
Colistin	≤ 0.5 µg/mL

Same assay, conditions: strain column 5 of 16

Compound	MIC
CC(C)(O/N=C(\C(=O)N[C@@H]1C(=O)N2C(C(=O)[O-])=C(C[n+]3ccccc3)CS[C@H]12)c1csc(N)n1)C(=O)O [Ceftazidim]	2 µg/mL (≈ 3.66 µM)
Colistin	1 µg/mL

Same assay, conditions: strain column 6 of 16

Compound	MIC
CC(C)(O/N=C(\C(=O)N[C@@H]1C(=O)N2C(C(=O)[O-])=C(C[n+]3ccccc3)CS[C@H]12)c1csc(N)n1)C(=O)O [Ceftazidim]	1 µg/mL (≈ 1.83 µM)
Colistin	2 µg/mL

Same assay, conditions: strain column 7 of 16

Compound	MIC
CC(C)(O/N=C(\C(=O)N[C@@H]1C(=O)N2C(C(=O)[O-])=C(C[n+]3ccccc3)CS[C@H]12)c1csc(N)n1)C(=O)O [Ceftazidim]	≤ 0.5 µg/mL
Colistin	1 µg/mL

Same assay, conditions: strain column 8 of 16

Compound	MIC
CC(C)(O/N=C(\C(=O)N[C@@H]1C(=O)N2C(C(=O)[O-])=C(C[n+]3ccccc3)CS[C@H]12)c1csc(N)n1)C(=O)O [Ceftazidim]	4 µg/mL (≈ 7.32 µM)
Colistin	2 µg/mL

Same assay, conditions: strain column 9 of 16

Compound	MIC
CC(C)(O/N=C(\C(=O)N[C@@H]1C(=O)N2C(C(=O)[O-])=C(C[n+]3ccccc3)CS[C@H]12)c1csc(N)n1)C(=O)O [Ceftazidim]	≤ 0.5 µg/mL
Colistin	2 µg/mL

Same assay, conditions: strain column 10 of 16

Compound	MIC
CC(C)(O/N=C(\C(=O)N[C@@H]1C(=O)N2C(C(=O)[O-])=C(C[n+]3ccccc3)CS[C@H]12)c1csc(N)n1)C(=O)O [Ceftazidim]	16 µg/mL (≈ 29.3 µM)
Colistin	1 µg/mL

Same assay, conditions: strain column 11 of 16

Compound	MIC
CC(C)(O/N=C(\C(=O)N[C@@H]1C(=O)N2C(C(=O)[O-])=C(C[n+]3ccccc3)CS[C@H]12)c1csc(N)n1)C(=O)O [Ceftazidim]	≤ 0.5 µg/mL
Colistin	1 µg/mL

Same assay, conditions: strain column 12 of 16

Compound	MIC
CC(C)(O/N=C(\C(=O)N[C@@H]1C(=O)N2C(C(=O)[O-])=C(C[n+]3ccccc3)CS[C@H]12)c1csc(N)n1)C(=O)O [Ceftazidim]	2 µg/mL (≈ 3.66 µM)
Colistin	2 µg/mL

Same assay, conditions: strain column 13 of 16

Compound	MIC
CC(C)(O/N=C(\C(=O)N[C@@H]1C(=O)N2C(C(=O)[O-])=C(C[n+]3ccccc3)CS[C@H]12)c1csc(N)n1)C(=O)O [Ceftazidim]	≤ 0.5 µg/mL
Colistin	1 µg/mL

Same assay, conditions: strain column 14 of 16

Compound	MIC
CC(C)(O/N=C(\C(=O)N[C@@H]1C(=O)N2C(C(=O)[O-])=C(C[n+]3ccccc3)CS[C@H]12)c1csc(N)n1)C(=O)O [Ceftazidim]	4 µg/mL (≈ 7.32 µM)
Colistin	1 µg/mL

Same assay, conditions: strain column 15 of 16

Compound	MIC
CC(C)(O/N=C(\C(=O)N[C@@H]1C(=O)N2C(C(=O)[O-])=C(C[n+]3ccccc3)CS[C@H]12)c1csc(N)n1)C(=O)O [Ceftazidim]	4 µg/mL (≈ 7.32 µM)
Colistin	1 µg/mL

Same assay, conditions: strain column 16 of 16

Compound	MIC
CC(C)(O/N=C(\C(=O)N[C@@H]1C(=O)N2C(C(=O)[O-])=C(C[n+]3ccccc3)CS[C@H]12)c1csc(N)n1)C(=O)O [Ceftazidim]	2 µg/mL (≈ 3.66 µM)
Colistin	2 µg/mL
